Laboratory results published in patent US9284281B2, “Indication of naphtho[2,3-F]quinoxaline-7,12-dione compound in alleviating pain” (NATIONAL CENTRAL UNIVERSITY, priority 2014, dated 2016).

Tests used:
Format in all cases: in vivo
CD-1 mice [1] = assay: Nociceptive pain: acute pain induced by pH 5.0 acid solution, mechanical hyperalgesia by von Frey filaments; settings: for paw withdrawal threshold (PWT): control 4.0±0 g; for effective dosage: intraplantar, acute pain induced by acid solution
Description: Naphtho[2,3-f]quinoxaline-7,12-dione compound was intraplantarly injected into the right hind paws of 8 to 12-week-old CD-1 mice. 5 minutes after the injection, 25 μL of pH 5.0 acid solution was intraplantarly injected into each of the mice. About 60 minutes later, the mice were directly tested with the hypersensitivity to mechanical stimuli using von Frey filaments (Touch-Test North Coast Medical, Inc., Margan Hill, Calif.). The control group was conducted under the same conditions except it was treated with a compound-free saline. The results are shown in FIG. 1, where the injection of 25 μL of the pH 5.0 acid solution induced mechanical hyperalgesia in the right hind paw of the mice, and the paw withdrawal threshold (PWT) of these mice was 1.1±0.065 g. By injecting 2.2 μg/kg of the naphtho[2,3-f]quinoxaline-7,12-dione (NSC745887, D1) compound intraplantarly into the right hind paws of the mice, the paw withdrawal threshold of those mice recovered to 4.0±0 g (PWT of control group mice was 4.0±0 g).
25 μL of acid solution with a pH of 5.0 was injected into 8 to 12-week-old CD-1 mice in order to induce mechanical hyperalgesia. Mice injected with saline were the control group; the ones that were injected with compound only were compound group; the ones that were injected with only the acid solution were the acid group and those injected with both compound and the acid solution were the acid+compound group.
The above-mentioned 1 M of pH 5.0 solution was prepared by dissolving 1.952 g of 2-(N-morpholino)ethanesulfonic acid (MES) in 10 mL of sterilized secondary water. The pH of the solution was adjusted to 5.0 using 1N NaOH solution. Before injection, pH5.0 was diluted with saline into 10 mM.
(§1) 2.2 μg/kg of the compound was administered to the mice by intraplantar injection about 5 minutes prior to the injection of the acid solution. An hour after the injection of the acid, the hypersensitivity of the mice to mechanical stimuli was measured using von Frey filaments (Touch-Test North Coast Medical, Inc., Margan Hill, Calif.). The mice were placed in transparent plastic chambers (10×8×10 cm) on a metal mesh floor at least 30 minutes per day for 2 days to acclimatize them to the testing room prior to the test. 60 minutes after the mice were administered with the compound, the mechanical hyperalgesia was assessed through the measurement of paw withdrawal frequencies by a sequential series of von Frey filaments of weights 0.6, 1.0, 1.4, 2.0 and 4.0 g applied perpendicularly to the plantar surface of the paw. The paw was briefly stimulated with force sufficient to slightly bend the filaments and a single trial consisted of repeated applications of the von Frey filaments five times, each application lasting for about 5 seconds. The occurrence of paw withdrawal resulting from the stimulation or removing the stimulation for each trial was quantified as a percentage response frequency for each filament. When the frequency was more than 50%, the weight of the von Frey filaments was determined as the paw withdrawal threshold (PWT). To make sure all the mice were under normal physical conditions, all housing conditions complied with general feeding standards, and the temperature and illumination were maintained in a suitable range.

CD-1 mice [2] = assay: Neuropathic pain: chronic constriction injury (CCI) of the sciatic nerve, mechanical hyperalgesia by von Frey filaments; settings: for paw withdrawal threshold (PWT): one week after CCI
Text: The assessment of the effectiveness of the compound for alleviating neuropathic pain used the animal model of chronic constriction injury (CCI) of the sciatic nerve, which was established by Bennett and Xie (1988). After the surgery, the mice developed long-lasting hypersensitivity to mechanical stimuli (chronic mechanical hyperalgesia), even being lightly touched. The mechanical hyperalgesia test was used to evaluate the analgesic effect of the compound.
The mice, after a week following the surgery, were intraplantarly injected with a series of different dosages of the naphtho[2,3-f]quinoxaline-7,12-dione compound, […], or the mice were injected with 2.2 μg/kg of compound intrathecally, or with 43 μg/kg of the compound intraperitoneally. The hypersensitivity to mechanical stimuli was measured using von Frey filaments at 60 minutes after the injection. The mice injected with saline following surgery were the control group and the other mice injected with gabapentin following surgery were the positive control group.
as §1
According to the method described by Bennett and Xie, Pain, 1988, 33, 87-107, 8 to 12-week-old CD-1 mice were subjected to the chronic constriction injury (CCI) of the sciatic nerve, which is an animal model inducing chronic neuropathic pain. To anesthetize the mice, each of the mice was injected with 240 mg/kg of 2,2,2-tribromoethanol (Avertin). Then three ligatures were loosely tied around the sciatic nerve of the mouse with chromic gut. The surgical procedure for the Sham (non ligation) control group was identical to that mentioned above except that the sciatic nerves were not ligated. A week after the mice in the experimental (CCI+compound) group had chronic constriction injury of sciatic nerves, the compound was intraplantarly, intrathecally, or intraperitoneally injected into the mice. 60 minutes after the injection, the mice were directly subjected to the hypersensitivity test to mechanical stimuli. The mice under the surgery treated with saline were the CCI group; the mice treated with gabapentin were the positive control (CCI+Gabapentin) group.

mice = assay: Inflammatory pain: chronic inflammatory pain induced by Complete Freund's Adjuvant (CFA), mechanical hyperalgesia by von Frey filaments
Description: When 50% CFA was intraplantarly injected into the mouse, paw edema and chronic mechanical hyperalgesia were developed in the tested mice. Different dosages of the naphtho[2,3-f]quinoxaline-7,12-dione compound, 0.22, 2.2, 22 μg/kg were intraplantarly injected into mouse hindpaw, followed by 50% CFA injection. At 60 minutes after the CFA injection, the hypersensitivity of the mice to mechanical stimuli was measured using von Frey filaments.
as §1
To induce paw edema and chronic inflammatory pain, 25 μL of 50% Complete Freund's Adjuvant (CFA) in saline was intraplantarly injected into the right hind paw of the mouse. […] 60 minutes after the CFA injection, the hypersensitivity to mechanical stimuli was measured using von Frey filaments.

[3] = 2.2 μg/kg intraplantar once every week for three weeks, FIG. 3

Cc1nc2ccc3c(c2nc1C)C(=O)c1ccccc1C3=O [C3, 2,3-dimethylnaphtho[2,3-f]quinoxaline-7,12-dione]
paw withdrawal threshold (PWT) (CD-1 mice [1]; 24 μg/kg intraplantar, then pH 5.0 acid solution, FIG. 1B): 2.0 ± 0 g
effective dosage (CD-1 mice [1]): 24 µg/kg
paw withdrawal threshold (PWT) (CD-1 mice [2]; 24 μg/kg intraplantar, FIG. 2B): 1.4 g
paw withdrawal threshold (PWT) (mice; 24 μg/kg intraplantar before CFA, FIG. 4B): 1.4 g

O=C1c2ccccc2C(=O)c2c1ccc1nccnc21 [D1, naphtho[2,3-f]quinoxaline-7,12-dione]
paw withdrawal threshold (PWT) (CD-1 mice [1]; 2.2 μg/kg intraplantar, 5 min before pH 5.0 acid solution, about 60 min later, acid only 1.1±0.065 g): 4.0 ± 0 g
effective dosage (CD-1 mice [1]): 2.2 µg/kg
paw withdrawal threshold (PWT), compound without acid solution (CD-1 mice [1]; sole injection of the compound without the acid solution, did not induce pain): 4.0 ± 0 g
tolerance to the compound (CD-1 mice [2]; 2.2 μg/kg intraplantar once every week for three weeks): no obvious indication that the mice developed tolerance
paw withdrawal threshold (PWT), first week (CD-1 mice [2]; [3]): 3.3 ± 0.67 g
paw withdrawal threshold (PWT), second week (CD-1 mice [2]; [3]): 3.3 ± 0.67 g
paw withdrawal threshold (PWT), third week (CD-1 mice [2]; [3]): 3.0 ± 0.1 g
paw withdrawal threshold (PWT) (CD-1 mice [2]; 2.2 μg/kg intraplantar, 60 min after injection, FIG. 2A, CCI 0.9±0.23 g, control 3.6±0.29 g): 3.3 ± 0.67 g
paw withdrawal threshold (PWT) (CD-1 mice [2]; 2.2 μg/kg intraplantar, FIG. 2B, CCI 0.9±0.23 g): 2.0 ± 0 g
paw withdrawal threshold (PWT) (CD-1 mice [2]; 2.2 μg/kg intrathecal, FIG. 2A): 2.0 g
paw withdrawal threshold (PWT) (CD-1 mice [2]; 22 μg/kg intraplantar, FIG. 2A): 3.3 ± 0.67 g
inhibition of mechanical hyperalgesia induced by CCI (CD-1 mice [2]; 43 μg/kg intraperitoneal): completely inhibited mechanical hyperalgesia
paw withdrawal threshold (PWT) (mice; 2.2 μg/kg intraplantar before 50% CFA, 60 min after CFA, FIG. 4A, CFA 0.4±0.033 g, control 3.8±0.171 g): 1.1 ± 0.15 g
paw withdrawal threshold (PWT) (mice; 22 μg/kg intraplantar before 50% CFA, FIG. 4A): 2.0 ± 0.411 g
paw withdrawal threshold (PWT) (mice; 22 μg/kg intraplantar before CFA, FIG. 4B, control 3.8±0.171 g): 2.3 g

O=C1c2ccccc2C(=O)c2c1ccc1[nH]c(=O)c(=O)[nH]c21 [D2, naphtho[2,3-f]quinoxaline-2,3,7,12(1H,4H)-tetraone]
paw withdrawal threshold (PWT) (CD-1 mice [1]; 24.3 μg/kg intraplantar, then pH 5.0 acid solution, FIG. 1C): 4.0 ± 0 g
effective dosage (CD-1 mice [1]): 24.3 µg/kg
paw withdrawal threshold (PWT) (CD-1 mice [2]; 24.3 μg/kg intraplantar, FIG. 2B): 2.0 ± 0 g
paw withdrawal threshold (PWT) (mice; 24.3 μg/kg intraplantar before CFA, FIG. 4B): 1.0 g

NCC1(CC(=O)O)CCCCC1 [gabapentin, reference compound]
dose required to inhibit chronic mechanical hyperalgesia caused by CCI (CD-1 mice [2]; intraperitoneal injection): at least 15,000 μg/kg
